According to US10954269B2, “Anti-inflammatory tripeptides” (Dr. August Wolff Gmbh & Co. KG Arzneimittel, priority 2013, dated 2021):

Experiments:
Conditions in all cases: substance 10^−9M
primary human T-cells = experiment: Cytokine secretion on protein level in activated primary human T-cells (13-plex FACS / Luminex, supernatant); assay type: cell-based
How it was run: (§1)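 First, T-cells are isolated from healthy donors' blood. Next, they and HaCaT keratinocytes are activated for 48 h with PMA/Ionomycin or IFN-γ in the presence of tripeptides. Finally, secreted cytokines are quantified in supernatants by 13-plex FACS at 48 and 72 h.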

[1] = tested on: human keratinocyte cell line (HaCaT); experiment: Cytokine secretion on protein level in activated human keratinocyte cell line HaCaT (13-plex FACS / Luminex, supernatant); assay type: cell-based
How it was run: as §1

primary murine T-cells = experiment: Cytokine secretion on protein level in activated primary murine T-cells (13-plex FACS / Luminex, supernatant); assay type: cell-based, C57BL/6 mice
How it was run: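 T-cells from secondary lymphatic organs of naïve C57BL/6 mice, stimulated with PMA/Ionomycin or IFN-γ; supernatant cytokines measured by 13-plex FACS 48 h and 72 h after stimulation. In another run, PMA/Ionomycin-stimulated cells received compounds at 10^−7, 10^−9 and 10^−11 M, with IFN-γ, IL-17 and IL-10 measured by Luminex.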

[2] = primary human T-cells stimulated with IFN-γ
[3] = primary human T-cells stimulated with PBS
[4] = primary human T-cells stimulated with PMA/Ionomycin
[5] = HaCaT stimulated with PMA/Ionomycin
[6] = primary murine T-cells stimulated with IFN-γ
[7] = primary murine T-cells stimulated with PBS
[8] = primary murine T-cells stimulated with PMA/Ionomycin

C[C@@H]1C[C@H]2[C@@H]3CCC4=CC(=O)C=C[C@]4(C)[C@@]3(F)[C@@H](O)C[C@]2(C)[C@@]1(O)C(=O)CO [dexamethasone, reference compound] gave an IL-1 cytokine concentration (primary human T-cells; [2]) of 0 pg/mL, an IL-2 cytokine concentration (primary human T-cells; [2]) of 0 pg/mL and an IL-4 cytokine concentration (primary human T-cells; [2]) of 0 pg/mL. The IL-5 cytokine concentration (primary human T-cells; [2]) was 0 pg/mL, the IL-6 cytokine concentration (primary human T-cells; [2]) was 56.47 pg/mL and the IL-9 cytokine concentration (primary human T-cells; [2]) was 0 pg/mL. It also gave an IL-10 cytokine concentration (primary human T-cells; [2]) of 0 pg/mL, an IL-12 cytokine concentration (primary human T-cells; [2]) of 0 pg/mL and an IL-13 cytokine concentration (primary human T-cells; [2]) of 0 pg/mL. It also gave an IL-17 cytokine concentration (primary human T-cells; [2]) of 0 pg/mL, an IL-22 cytokine concentration (primary human T-cells; [2]) of 0 pg/mL and a TNF-α cytokine concentration (primary human T-cells; [2]) of 0 pg/mL. For the same molecule, the IFN-γ cytokine concentration (primary human T-cells; [3]) was 0 pg/mL, the IL-1 cytokine concentration (primary human T-cells; [3]) was 0 pg/mL and the IL-2 cytokine concentration (primary human T-cells; [3]) was 0 pg/mL. For the same molecule, the IL-4 cytokine concentration (primary human T-cells; [3]) was 0 pg/mL, the IL-5 cytokine concentration (primary human T-cells; [3]) was 0 pg/mL and the IL-6 cytokine concentration (primary human T-cells; [3]) was 80.63 pg/mL. The IL-9 cytokine concentration (primary human T-cells; [3]) was 13.05 pg/mL, the IL-10 cytokine concentration (primary human T-cells; [3]) was 45.66 pg/mL and the IL-12 cytokine concentration (primary human T-cells; [3]) was 0 pg/mL. For the same molecule, the IL-13 cytokine concentration (primary human T-cells; [3]) was 55.12 pg/mL, the IL-17 cytokine concentration (primary human T-cells; [3]) was 69.45 pg/mL and the IL-22 cytokine concentration (primary human T-cells; [3]) was 0 pg/mL. It also gave a TNF-a cytokine concentration (primary human T-cells; [3]) of 41.45 pg/mL, an IFN-γ cytokine concentration (primary human T-cells; [4]) of 888.61 pg/mL and an IL-1 cytokine concentration (primary human T-cells; [4]) of 448.69 pg/mL. It also gave an IL-2 cytokine concentration (primary human T-cells; [4]) of 2198.45 pg/mL, an IL-4 cytokine concentration (primary human T-cells; [4]) of 79.02 pg/mL and an IL-5 cytokine concentration (primary human T-cells; [4]) of 297.13 pg/mL. It also gave an IL-6 cytokine concentration (primary human T-cells; [4]) of 1078.6 pg/mL, an IL-9 cytokine concentration (primary human T-cells; [4]) of 392.74 pg/mL and an IL-10 cytokine concentration (primary human T-cells; [4]) of 799.85 pg/mL. For the same molecule, the IL-12 cytokine concentration (primary human T-cells; [4]) was 0 pg/mL, the IL-13 cytokine concentration (primary human T-cells; [4]) was 1099.59 pg/mL and the IL-17 cytokine concentration (primary human T-cells; [4]) was 1134.18 pg/mL. The IL-22 cytokine concentration (primary human T-cells; [4]) was 0 pg/mL, the TNF-a cytokine concentration (primary human T-cells; [4]) was 3264.56 pg/mL and the IL-1 cytokine concentration ([1]; HaCaT stimulated with IFN-γ) was 0 pg/mL. For the same molecule, the IL-2 cytokine concentration ([1]; HaCaT stimulated with IFN-γ) was 0 pg/mL, the IL-4 cytokine concentration ([1]; HaCaT stimulated with IFN-γ) was 39.78 pg/mL and the IL-5 cytokine concentration ([1]; HaCaT stimulated with IFN-γ) was 0 pg/mL. It also gave an IL-6 cytokine concentration ([1]; HaCaT stimulated with IFN-γ) of 204.99 pg/mL, an IL-9 cytokine concentration ([1]; HaCaT stimulated with IFN-γ) of 0 pg/mL and an IL-10 cytokine concentration ([1]; HaCaT stimulated with IFN-γ) of 0 pg/mL. It also gave an IL-12 cytokine concentration ([1]; HaCaT stimulated with IFN-γ) of 0 pg/mL, an IL-13 cytokine concentration ([1]; HaCaT stimulated with IFN-γ) of 0 pg/mL and an IL-17 cytokine concentration ([1]; HaCaT stimulated with IFN-γ) of 69.14 pg/mL. For the same molecule, the IL-22 cytokine concentration ([1]; HaCaT stimulated with IFN-γ) was 0 pg/mL, the TNF-α cytokine concentration ([1]; HaCaT stimulated with IFN-γ) was 0 pg/mL and the IFN-γ cytokine concentration ([1]; HaCaT stimulated with PBS) was 12.98 pg/mL. For the same molecule, the IL-1 cytokine concentration ([1]; HaCaT stimulated with PBS) was 0 pg/mL, the IL-2 cytokine concentration ([1]; HaCaT stimulated with PBS) was 0 pg/mL and the IL-4 cytokine concentration ([1]; HaCaT stimulated with PBS) was 133.98 pg/mL. For the same molecule, the IL-5 cytokine concentration ([1]; HaCaT stimulated with PBS) was 0 pg/mL, the IL-6 cytokine concentration ([1]; HaCaT stimulated with PBS) was 44.79 pg/mL and the IL-9 cytokine concentration ([1]; HaCaT stimulated with PBS) was 0 pg/mL. For the same molecule, the IL-10 cytokine concentration ([1]; HaCaT stimulated with PBS) was 30.89 pg/mL, the IL-12 cytokine concentration ([1]; HaCaT stimulated with PBS) was 0 pg/mL and the IL-13 cytokine concentration ([1]; HaCaT stimulated with PBS) was 0 pg/mL. The IL-17 cytokine concentration ([1]; HaCaT stimulated with PBS) was 0 pg/mL, the IL-22 cytokine concentration ([1]; HaCaT stimulated with PBS) was 0 pg/mL and the TNF-α cytokine concentration ([1]; HaCaT stimulated with PBS) was 0 pg/mL. It also gave an IFN-γ cytokine concentration [1, 5] of 0 pg/mL, an IL-1 cytokine concentration [1, 5] of 0 pg/mL and an IL-2 cytokine concentration [1, 5] of 0 pg/mL. The IL-4 cytokine concentration [1, 5] was 91.48 pg/mL, the IL-5 cytokine concentration [1, 5] was 0 pg/mL and the IL-6 cytokine concentration [1, 5] was 124.98 pg/mL. The IL-9 cytokine concentration [1, 5] was 0 pg/mL, the IL-10 cytokine concentration [1, 5] was 54.10 pg/mL and the IL-12 cytokine concentration [1, 5] was 0 pg/mL. The IL-13 cytokine concentration [1, 5] was 0 pg/mL, the IL-17 cytokine concentration [1, 5] was 0 pg/mL and the IL-22 cytokine concentration [1, 5] was 0 pg/mL. It also gave a TNF-α cytokine concentration [1, 5] of 0 pg/mL, an IL-1 cytokine concentration (primary murine T-cells; [6]) of 64.89 pg/mL and an IL-2 cytokine concentration (primary murine T-cells; [6]) of 70.49 pg/mL. It also gave an IL-4 cytokine concentration (primary murine T-cells; [6]) of 61.11 pg/mL, an IL-5 cytokine concentration (primary murine T-cells; [6]) of 208.28 pg/mL and an IL-6 cytokine concentration (primary murine T-cells; [6]) of 108.76 pg/mL. It also gave an IL-10 cytokine concentration (primary murine T-cells; [6]) of 905.55 pg/mL, an IL-13 cytokine concentration (primary murine T-cells; [6]) of 0 pg/mL and an IL-17 cytokine concentration (primary murine T-cells; [6]) of 52.48 pg/mL. For the same molecule, the IL-21 cytokine concentration (primary murine T-cells; [6]) was 0 pg/mL, the IL-22 cytokine concentration (primary murine T-cells; [6]) was 37.13 pg/mL and the IL-27 cytokine concentration (primary murine T-cells; [6]) was 21.29 pg/mL. The TNF-α cytokine concentration (primary murine T-cells; [6]) was 32.32 pg/mL, the IFN-γ cytokine concentration (primary murine T-cells; [7]) was 0 pg/mL and the IL-1 cytokine concentration (primary murine T-cells; [7]) was 50.19 pg/mL. The IL-2 cytokine concentration (primary murine T-cells; [7]) was 98.48 pg/mL, the IL-4 cytokine concentration (primary murine T-cells; [7]) was 64.23 pg/mL and the IL-5 cytokine concentration (primary murine T-cells; [7]) was 249.8 pg/mL. It also gave an IL-6 cytokine concentration (primary murine T-cells; [7]) of 88.47 pg/mL, an IL-10 cytokine concentration (primary murine T-cells; [7]) of 586.12 pg/mL and an IL-13 cytokine concentration (primary murine T-cells; [7]) of 0 pg/mL. For the same molecule, the IL-17 cytokine concentration (primary murine T-cells; [7]) was 0 pg/mL, the IL-21 cytokine concentration (primary murine T-cells; [7]) was 0 pg/mL and the IL-22 cytokine concentration (primary murine T-cells; [7]) was 69.18 pg/mL. For the same molecule, the IL-27 cytokine concentration (primary murine T-cells; [7]) was 84.69 pg/mL, the TNF-α cytokine concentration (primary murine T-cells; [7]) was 67.18 pg/mL and the IFN-γ cytokine concentration (primary murine T-cells; [8]) was 1777.98 pg/mL. It also gave an IL-1 cytokine concentration (primary murine T-cells; [8]) of 160.95 pg/mL, an IL-2 cytokine concentration (primary murine T-cells; [8]) of 97.41 pg/mL and an IL-4 cytokine concentration (primary murine T-cells; [8]) of 57.84 pg/mL. For the same molecule, the IL-5 cytokine concentration (primary murine T-cells; [8]) was 198.45 pg/mL, the IL-6 cytokine concentration (primary murine T-cells; [8]) was 144.26 pg/mL and the IL-10 cytokine concentration (primary murine T-cells; [8]) was 899.74 pg/mL. It also gave an IL-13 cytokine concentration (primary murine T-cells; [8]) of 0 pg/mL, an IL-17 cytokine concentration (primary murine T-cells; [8]) of 76.12 pg/mL and an IL-21 cytokine concentration (primary murine T-cells; [8]) of 0 pg/mL. The IL-22 cytokine concentration (primary murine T-cells; [8]) was 97.01 pg/mL, the IL-27 cytokine concentration (primary murine T-cells; [8]) was 94.12 pg/mL and the TNF-α cytokine concentration (primary murine T-cells; [8]) was 36.25 pg/mL.
